Consider three compounds from US4762828A, “1,2,4-triazolo[4,3-d]-4-azatricyclo-[4.3.1.1^3,8 ]undecane and 3-substituted derivatives, and intermediates thereof” (Pennwalt Corporation, priority 1987, dated 1988).

Data set [1] has as its system carrageenan-induced rat paw edema. The experiment in a line: carrageenan-induced rat paw edema assay (anti-inflammatory activity). The format is in vivo, male Sprague Dawley rats. The settings on record: for % Inhibition: oral, control 63.9% edema; for anti-inflammatory activity (in words): administered orally. The protocol:
Anti-inflamatory activity was determined by carragenaninduced paw edema of laboratory rats. Groups of six male Sprague Dawley rats orally received compound suspended in a 1% aqueous solution of Methocel brand methylcellulose. Control rats received a 0.5% aqueous solution of Methocel only. Two hours later, each rat received a subcutaneous injection of 0.1 ml of a 1% homogenized suspension of carrageenan in the plantar surface of the right hind paw.
Immediately, the volume of the paw was measured by immersing it in mercury to above the lateral mateolus. The mercury in a glass cylinder 25 mm in diameter and 60 mm deep was connected at the bottom on the cylinder by a column of water to a Statham transducer (model P23BB), range 0-5 cm of mercury pressure. The volume was recorded electronically on a Beckman recorder, R511. Three hours later, the inflamed paw volume was measured again, and the change in volume was recorded for each group. Indomethacin,a known anti-inflamatory agent, was included as a standard.
(In general: Carrageenan injected into the paw causes an acute inflammation.)

Data set [2] is described as follows: minimal neurotoxic dose. The arrangement: species or system mice. The settings on record: mouse, in vivo, ip.
The test system of data set [3] is mice. The experiment in a line: antihypoxia test: survival duration of mice in a normobaric atmosphere of 96% nitrogen and 4% oxygen at 35° C. In kind it is in vivo. The settings on record: for Survival Minutes, Compound: N=5, 35° C. The protocol:
N^1 = Number of mice in each group
NS = Not significant, P >0.05
ip = intraperitoneal administration
iv = intravenous administration
The antihypoxia test measures the survival duration of mice in a normobaric atmosphere consisting of 96% nitrogen and 4% oxygen, at 35° C. The mice are considered dead when they stop visible respiration. The test indicates potential clinical utility in situations of central nervous system hypoxia, such as occurs following stroke, cardiac arrest, and traumatic accidents.

The test system of data set [4] is mice. The experiment in a line: estimated LD50. The settings on record: ip.

What is called % Inhibition is the change of the read-out against control, counted positive when it falls. Read a low % Inhibition as a weak effect. Turning to `c1nnc2n1C1CC3CC(CC2C3)C1` [Example 1, 1,2,4-Triazolo[4,3-d]-4-azatricyclo[4.3.1.1^3,8]undecane Hydroiodide], the “% Inhibition” value in data set [1] (25.0 mg/kg) is given as 17.0%; in data set [1] (50.0 mg/kg, Hydroiodide), 43.4%; in data set [1] (100.0 mg/kg), 56.6%. Also, in data set [1], the “anti-inflammatory activity (in words)” value is “demonstrated activity”.

In the case of `COc1ccc2c(c1)c(CC(=O)O)c(C)n2C(=O)c1ccc(Cl)cc1` [Indomethacin, reference compound], the “% Inhibition” value in data set [1] (4.0 mg/kg) is reported as 52.8%.

Take `c1nnc2n1C1CC3CC(CC2C3)C1` [Example 2, 1,2,4-Triazolo[4,3-d]-4-azatricyclo[4.3.1.1^3,8]undecane]: the minimal neurotoxic dose in data set [2] came out at 6 mg/kg. In addition, the “Survival Minutes, Compound” value came out at 2.34 min in data set [3] (1 mg/kg iv, control 2.36, P NS); 3.02 min in data set [3] (1.5 mg/kg iv, control 2.30, P NS); 5.78 min in data set [3] (6 mg/kg ip, control 2.08, P =0.04). In addition, in data set [3] (6 mg/kg (i.p.)), the “prolonged the survival time of mice in the antihypoxia test” value is listed as “more than 2 fold”. Further, in data set [4], the “Estimated LD50” value is on record as 12 mg/kg. Moreover, the figures for the “% Inhibition” value in data set [1] (25.0 mg/kg) and in data set [1] (50.0 mg/kg) were 17.0% and 28.3%, respectively. In data set [1], the “anti-inflammatory activity (in words)” value was “demonstrated activity”.
